PMC8851638 (ACS Omega, 2022)
In brackets after ≈: the same amount, converted by molar mass. Several values for one entry are separate records, joined by “and”; a condition that tells them apart may be missing. Identical values can stand only once.

Assays:
[1] = tested on: S. aureus (MDR00231); assay: Agar well-diffusion antimicrobial sensitivity assay; assay type: cell-based, Staphylococcus aureus; conditions: Staphylococcus aureus, read-out: Inhibition Zone (IZ)
[2] = tested on: S. epidermidis (MDR00223); assay: as above; assay type: cell-based, Staphylococcus epidermidis; conditions: Staphylococcus epidermidis, read-out: Inhibition Zone (IZ)
[3] = tested on: E. coli (MDR00501); assay: as above; assay type: cell-based; conditions: Escherichia coli, read-out: Inhibition Zone (IZ)
[4] = tested on: C. albicans100 (MDR00100); assay: as above; assay type: cell-based, Candida albicans; conditions: Candida albicans, read-out: Inhibition Zone (IZ)
[5] = tested on: C. albicans200 (MDR00200); assay: as above; assay type: cell-based, Candida albicans; conditions: Candida albicans, read-out: Inhibition Zone (IZ)
[6] = tested on: S. aureus (MDR00231); assay: MIC and MBC by broth microdilution; assay type: cell-based, Staphylococcus aureus
[7] = tested on: S. epidermidis (MDR00223); assay: MIC and MBC by broth microdilution; assay type: cell-based, Staphylococcus epidermidis
[8] = tested on: B. subtilis (MDR00423); assay: MIC and MBC by broth microdilution; assay type: cell-based; conditions: B. subtilis; ratio in parentheses
[9] = tested on: E. coli (MDR00501); assay: MIC and MBC by broth microdilution; assay type: cell-based
[10] = tested on: A. baumannii (MDR00521); assay: MIC and MBC by broth microdilution; assay type: cell-based; conditions: ratio in parentheses
[11] = tested on: K. pneumoniae (MDR00244); assay: MIC and MBC by broth microdilution; assay type: cell-based; conditions: ratio in parentheses
[12] = tested on: C. albicans100 (MDR00100); assay: MIC and MFC by broth microdilution; assay type: cell-based, Candida albicans
[13] = tested on: C. albicans200 (MDR00200); assay: MIC and MFC by broth microdilution; assay type: cell-based, Candida albicans
[14] = tested on: S. aureus biofilm; assay: Staphylococcus biofilm mass reduction; assay type: cell-based; conditions: at their MIC
[15] = tested on: S. epidermidis biofilm; assay: Staphylococcus biofilm mass reduction; assay type: cell-based; conditions: at their MIC
[16] = tested on: S. aureus; assay: Single-step resistance selection; assay type: cell-based, Staphylococcus aureus; conditions: 4 × MIC, 48 h
[17] = tested on: S. epidermidis; assay: Single-step resistance selection; assay type: cell-based, Staphylococcus epidermidis; conditions: 4 × MIC, 48 h
[18] = tested on: B. subtilis; assay: Single-step resistance selection; assay type: cell-based; conditions: 4 × MIC, 48 h
[19] = tested on: E. coli; assay: Single-step resistance selection; assay type: cell-based; conditions: 4 × MIC, 48 h
[20] = tested on: A. baumannii; assay: Single-step resistance selection; assay type: cell-based; conditions: 4 × MIC, 48 h
[21] = tested on: K. pneumoniae; assay: Single-step resistance selection; assay type: cell-based; conditions: 4 × MIC, 48 h
[22] = tested on: C. albicans100; assay: Single-step resistance selection; assay type: cell-based, Candida albicans; conditions: 4 × MIC, 48 h
[23] = tested on: C. albicans200; assay: Single-step resistance selection; assay type: cell-based, Candida albicans; conditions: 4 × MIC, 48 h
[24] = tested on: A. baumannii; assay: Checkerboard combination assay with Ciprofloxacin; assay type: cell-based
[25] = tested on: C. albicans100; assay: Checkerboard combination assay with Ketoconazole; assay type: cell-based, Candida albicans
[26] = tested on: C. albicans200; assay: Checkerboard combination assay with Ketoconazole; assay type: cell-based, Candida albicans
[27] = tested on: RBCs; assay: Hemolytic assay; assay type: cell-based; conditions: human RBCs; compounds 1.0 mg/mL; Triton X-100 0.1% v/v; 37 °C, 35 min
[28] = biological target: E. coli DNA gyrase (Escherichia coli, UniProt P0AES4+P0AES6); assay: DNA gyrase inhibition; assay type: biochemical
Sequence of E. coli DNA gyrase (P0AES4 whole entry, one chain of several): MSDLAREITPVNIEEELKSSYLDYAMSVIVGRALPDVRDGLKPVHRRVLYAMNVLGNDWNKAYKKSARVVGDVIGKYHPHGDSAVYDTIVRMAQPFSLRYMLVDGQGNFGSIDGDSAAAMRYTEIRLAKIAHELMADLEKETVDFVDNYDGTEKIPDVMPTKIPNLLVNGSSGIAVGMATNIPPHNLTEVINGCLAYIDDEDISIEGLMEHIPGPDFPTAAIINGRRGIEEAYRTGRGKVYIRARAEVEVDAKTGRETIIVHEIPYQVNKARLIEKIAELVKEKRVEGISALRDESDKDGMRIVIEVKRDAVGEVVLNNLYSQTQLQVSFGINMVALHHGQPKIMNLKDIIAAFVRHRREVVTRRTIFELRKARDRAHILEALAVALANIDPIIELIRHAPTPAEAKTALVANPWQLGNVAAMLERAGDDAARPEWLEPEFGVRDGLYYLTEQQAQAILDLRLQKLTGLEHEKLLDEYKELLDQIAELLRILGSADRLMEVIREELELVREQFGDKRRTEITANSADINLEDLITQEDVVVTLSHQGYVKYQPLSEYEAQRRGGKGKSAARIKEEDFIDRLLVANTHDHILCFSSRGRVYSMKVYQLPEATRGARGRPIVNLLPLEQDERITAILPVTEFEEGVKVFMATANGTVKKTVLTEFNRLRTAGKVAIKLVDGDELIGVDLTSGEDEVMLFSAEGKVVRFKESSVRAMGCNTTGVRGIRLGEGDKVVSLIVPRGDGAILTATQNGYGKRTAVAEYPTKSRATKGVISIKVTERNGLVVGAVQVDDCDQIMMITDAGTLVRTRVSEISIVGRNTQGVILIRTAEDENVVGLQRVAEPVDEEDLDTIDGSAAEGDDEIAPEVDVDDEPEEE

[29] = biological target: T1, dihydrofolate reductase (DHFR) (Homo sapiens, UniProt P00374); assay: DHFR inhibition; assay type: biochemical
T1 sequence (P00374 1-187): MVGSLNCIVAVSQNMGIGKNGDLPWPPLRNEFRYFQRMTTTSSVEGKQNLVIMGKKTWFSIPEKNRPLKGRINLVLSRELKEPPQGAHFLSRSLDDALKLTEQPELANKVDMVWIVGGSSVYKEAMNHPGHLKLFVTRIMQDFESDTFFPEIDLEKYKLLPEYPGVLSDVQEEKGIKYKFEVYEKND

[30] = In vitro cytotoxicity on normal cell line; assay type: cell-based, mouse; conditions: mouse, BNL normal liver cells
[31] = tested on: BNL: mouse normal liver cells; assay: In vitro cytotoxicity on normal cell line; assay type: cell-based
[32] = In vitro cytotoxicity on normal cell line; assay type: cell-based, green monkey; conditions: green monkey, Vero kidney cells
[33] = tested on: Vero: green monkey kidney; assay: In vitro cytotoxicity on normal cell line; assay type: cell-based
[34] = In vitro cytotoxicity on normal cell line; assay type: cell-based, rat; conditions: rat, H9C2 heart/myocardium cells
[35] = tested on: H9C2: rat heart/myocardium; assay: In vitro cytotoxicity on normal cell line; assay type: cell-based
[36] = tested on: Gram-negative bacteria; assay: MIC broth microdilution, Gram-negative panel; assay type: cell-based; conditions: Gram-negative bacteria used in this study
[37] = tested on: clinical pathogenic isolates; assay: Single-step resistance selection, whole panel; assay type: cell-based; conditions: 4 × MIC
[38] = Candida albicans, read-out: MIC (mean ± SEM)

Compound: Cc1c(NN=C(C#N)C2=NC(=O)CS2)c(=O)n(-c2ccccc2)n1C [Compound 13, N-(1,5-Dimethyl-3-oxo-2-phenyl-2,3-dihydro-1H-pyrazol-4-yl)-4-oxo-4,5-dihydrothiazole-2-carbohydrazonoyl cyanide]
- zone of inhibition at 100000 µg/mL [1]: 27 ± 0.82 mm
- zone of inhibition at 100000 µg/mL [2]: 25 ± 0.45 mm
- zone of inhibition at 100000 µg/mL [3]: 28 ± 0.55 mm
- zone of inhibition at 100000 µg/mL [4]: 29 ± 0.25 mm
- zone of inhibition at 100000 µg/mL [5]: 28 ± 0.36 mm
- MBC/MIC ([6]; S. aureus, ratio in parentheses): 1
- MIC ([6]; Staphylococcus aureus, read-out: MIC (mean ± SEM)): 0.98 ± 0.2 µg/mL (≈ 2.77 µM)
- MBC/MIC ([7]; S. epidermidis, ratio in parentheses): 1
- MIC ([7]; Staphylococcus epidermidis, read-out: MIC (mean ± SEM)): 0.99 ± 0.3 µg/mL (≈ 2.79 µM)
- MBC/MIC [8]: 2
- MBC/MIC ([9]; E. coli, ratio in parentheses): 0.5
- MIC ([9]; Escherichia coli, read-out: MIC (mean ± SEM)): 0.49 ± 0.2 µg/mL (≈ 1.38 µM)
- MBC/MIC [10]: 0.5
- MBC/MIC [11]: 2
- MFC/MIC ([12]; C. albicans100, ratio in parentheses): 2
- MIC [12, 38]: 0.99 ± 0.2 µg/mL (≈ 2.79 µM)
- MFC/MIC ([13]; C. albicans200, ratio in parentheses): 2
- MIC [13, 38]: 0.98 ± 0.3 µg/mL (≈ 2.77 µM)
- reduction of biofilm formation [14]: 51.2%
- reduction of biofilm formation [15]: 47.8%
- Single-step resistance frequency (mutation frequency) [16]: 2.73 × 10^–8
- Single-step resistance frequency (mutation frequency) [17]: 4.15 × 10^–8
- Single-step resistance frequency (mutation frequency) [18]: 1.66 × 10^–9
- Single-step resistance frequency (mutation frequency) [19]: 2.90 × 10^–8
- Single-step resistance frequency (mutation frequency) [20]: 2.71 × 10^–7
- Single-step resistance frequency (mutation frequency) [21]: 3.22 × 10^–8
- Single-step resistance frequency (mutation frequency) [22]: 2.92 × 10^–9
- Single-step resistance frequency (mutation frequency) [23]: 3.20 × 10^–8
- combination effect [24]: S (S: synergism)
- fractional inhibitory concentration index (FICI) [24]: 0.5
- combination effect [25]: S (S: synergism)
- fractional inhibitory concentration index (FICI) [25]: 0.5
- combination effect [26]: S (S: synergism)
- fractional inhibitory concentration index (FICI) [26]: 0.5
- %lysis of RBCs [27]: 15.22% and 15.22 ± 0.43%
- IC50 [28]: 31.64 ± 0.17 µM
- IC50 [29]: 2.67 ± 0.14 µM
- IC50 at 72 h [30]: 79.5 ± 1.67 µM
- Selectivity index against DHFR ([31]; IC50 of BNL / IC50 of DHFR): 29.78
- Selectivity index against DNA gyrase ([31]; IC50 of BNL / IC50 of DNA gyrase): 2.51
- IC50 at 72 h [32]: 74.8 ± 2.12 µM
- Selectivity index against DHFR ([33]; IC50 of Vero / IC50 of DHFR): 28.02
- Selectivity index against DNA gyrase ([33]; IC50 of Vero / IC50 of DNA gyrase): 2.36
- IC50 at 72 h [34]: 61.6 ± 1.64 µM
- Selectivity index against DHFR ([35]; IC50 of H9C2 / IC50 of DHFR): 23.06
- Selectivity index against DNA gyrase ([35]; IC50 of H9C2 / IC50 of DNA gyrase): 1.94
- MIC, range over panel [36]: 0.43 to 0.98 µg/mL
- mutation frequency, range over panel [37]: 2.71 × 10^–7 to 2.92 × 10^–9
